Results as given in ChEMBL document CHEMBL1201862, “PubChem BioAssay data set” (2004).
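In this assay, cells in 96-well plates receive the compound at five concentrations for 48 hours. Endpoints are linearly interpolated between the surrounding concentrations. At the GI50, growth is halved.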 Activity calls are given as the source filed them. Cut-off read from the data, not from the text of the source: active = GI50 up to about 1.1 µM and inactive = higher.

Experiments:
Experiment in all cases: inhibition of tumour cell growth, NCI panel, 48 h
IGROV-1 = test system: IGROV-1
OVCAR-5 = test system: OVCAR-5
SNB-75 = test system: SNB-75
OVCAR-3 = test system: OVCAR-3
SN12C = test system: SN12C
UO-31 = test system: UO-31
A549 = test system: A549
SNB-19 = test system: SNB-19
M14 = test system: M14
ACHN = test system: ACHN
UACC-62 = test system: UACC-62
DMS-114 = test system: DMS-114
U-251 = test system: U-251
SNB-78 = test system: SNB-78
HOP-62 = test system: HOP-62
OVCAR-4 = test system: OVCAR-4
SK-OV-3 = test system: SK-OV-3
DMS-273 = test system: DMS-273
HCT-116 = test system: HCT-116
SF-295 = test system: SF-295
XF498 = test system: XF498
OVCAR-8 = test system: OVCAR-8
HL-60 = test system: HL-60
HOP-18 = test system: HOP-18
HCT-15 = test system: HCT-15
UACC-257 = test system: UACC-257
SK-MEL-28 = test system: SK-MEL-28
CAKI-1 = test system: CAKI-1
KM-20L2 = test system: KM-20L2
NCI-H460 = test system: NCI-H460
NCI-H23 = test system: NCI-H23
LOX IMVI = test system: LOX IMVI
RXF 393 = test system: RXF 393
TK-10 = test system: TK-10
COLO 205 = test system: COLO 205
Malme-3M = test system: Malme-3M
HOP-92 = test system: HOP-92
SW-620 = test system: SW-620
K562 = test system: K562
SK-MEL-5 = test system: SK-MEL-5
RXF 631 = test system: RXF 631
EKVX = test system: EKVX
CCRF-CEM = test system: CCRF-CEM
HT-29 = test system: HT-29
M19-MEL = test system: M19-MEL
DLD-1 = test system: DLD-1
NCI-H522 = test system: NCI-H522
786-0 = test system: 786-0
MOLT-4 = test system: MOLT-4
A498 = test system: A498
SK-MEL-2 = test system: SK-MEL-2
SF-268 = test system: SF-268
RPMI-8226 = test system: RPMI-8226
KM12 = test system: KM12
SF-539 = test system: SF-539
LXFL 529 = test system: LXFL 529
HCC 2998 = test system: HCC 2998
SR = test system: SR
NCI-H226 = test system: NCI-H226

`COc1cc(C2C3=C(CCC3=O)Oc3cc4c(cc32)OCO4)cc(OC)c1OC` (stereo not drawn) was tested, and the GI50 (IGROV-1) was 0.67 µM (active), the GI50 (OVCAR-5) was 0.458 µM (active) and the GI50 (SNB-75) was 0.038 µM (active). The GI50 (OVCAR-3) was 0.136 µM (active), the GI50 (SN12C) was 0.593 µM (active) and the GI50 (UO-31) was 0.321 µM (active). For the same molecule, the GI50 (A549) was 0.448 µM (active), the GI50 (SNB-19) was 0.692 µM (active) and the GI50 (M14) was 0.349 µM (active). The GI50 (ACHN) was 0.337 µM (active), the GI50 (UACC-62) was 0.141 µM (active) and the GI50 (DMS-114) was 0.218 µM (active). The GI50 (U-251) was 0.366 µM (active), the GI50 (SNB-78) was 0.706 µM (active) and the GI50 (HOP-62) was 0.0324 µM (active). For the same molecule, the GI50 (OVCAR-4) was 10 µM (inactive), the GI50 (SK-OV-3) was 0.28 µM (active) and the GI50 (DMS-273) was 0.158 µM (active). The GI50 (HCT-116) was 0.391 µM (active), the GI50 (SF-295) was 0.109 µM (active) and the GI50 (XF498) was 0.122 µM (active). For the same molecule, the GI50 (OVCAR-8) was 0.596 µM (active), the GI50 (HL-60) was 0.204 µM (active) and the GI50 (HOP-18) was > 100 µM (inactive). For the same molecule, the GI50 (HCT-15) was 0.256 µM, the GI50 (UACC-257) was 0.406 µM (active) and the GI50 (SK-MEL-28) was 0.429 µM (active). The GI50 (CAKI-1) was 0.222 µM (active), the GI50 (KM-20L2) was 0.238 µM (active) and the GI50 (NCI-H460) was 0.358 µM (active). The GI50 (NCI-H23) was 0.39 µM (active), the GI50 (LOX IMVI) was 0.491 µM (active) and the GI50 (RXF 393) was 0.54 µM (active). The GI50 (TK-10) was 0.417 µM (active), the GI50 (COLO 205) was 0.336 µM (active) and the GI50 (Malme-3M) was 1.44 µM (inactive). For the same molecule, the GI50 (HOP-92) was 0.036 µM (active), the GI50 (SW-620) was 0.285 µM (active) and the GI50 (K562) was 0.138 µM (active). The GI50 (SK-MEL-5) was 0.237 µM (active), the GI50 (RXF 631) was 0.367 µM (active) and the GI50 (EKVX) was 0.422 µM (active). The GI50 (CCRF-CEM) was 0.318 µM (active), the GI50 (HT-29) was 0.279 µM (active) and the GI50 (M19-MEL) was 0.412 µM (active).
`C[N+]1(C)C/C(=C/c2ccc(F)cc2)C(=O)/C(=C\c2ccc(F)cc2)C1` was tested, and the GI50 (DLD-1) was 30.2 µM (inactive), the GI50 (NCI-H522) was 16.6 µM (inactive) and the GI50 (786-0) was 49.4 µM (inactive). The GI50 (IGROV-1) was 26.1 µM (inactive), the GI50 (OVCAR-5) was > 100 µM (inactive) and the GI50 (SNB-75) was 53.8 µM (inactive). The GI50 (OVCAR-3) was 45.5 µM (inactive), the GI50 (SN12C) was 2.14 µM (inactive) and the GI50 (UO-31) was > 100 µM (inactive). For the same molecule, the GI50 (A549) was 74 µM (inactive), the GI50 (SNB-19) was 49.3 µM (inactive) and the GI50 (MOLT-4) was 15.4 µM (inactive). For the same molecule, the GI50 (M14) was > 100 µM (inactive), the GI50 (ACHN) was > 100 µM (inactive) and the GI50 (UACC-62) was 13.8 µM (inactive). The GI50 (DMS-114) was 22.8 µM (inactive), the GI50 (U-251) was 16.4 µM (inactive) and the GI50 (SNB-78) was > 100 µM (inactive). The GI50 (HOP-62) was > 100 µM (inactive), the GI50 (OVCAR-4) was > 100 µM (inactive) and the GI50 (SK-OV-3) was > 100 µM (inactive). For the same molecule, the GI50 (DMS-273) was 30.6 µM (inactive), the GI50 (HCT-116) was > 100 µM (inactive) and the GI50 (SF-295) was 50.6 µM (inactive). The GI50 (OVCAR-8) was 47.2 µM (inactive), the GI50 (HL-60) was 17.3 µM (inactive) and the GI50 (HOP-18) was > 100 µM (inactive). The GI50 (HCT-15) was over 100 µM, the GI50 (A498) was 31.1 µM (inactive) and the GI50 (SK-MEL-2) was 56.8 µM (inactive). The GI50 (UACC-257) was 24.7 µM (inactive), the GI50 (SK-MEL-28) was 15 µM (inactive) and the GI50 (SF-268) was 23.3 µM (inactive). The GI50 (RPMI-8226) was 24.4 µM (inactive), the GI50 (KM-20L2) was > 100 µM (inactive) and the GI50 (KM12) was 67.8 µM (inactive). The GI50 (NCI-H460) was 50.9 µM (inactive), the GI50 (NCI-H23) was 32.7 µM (inactive) and the GI50 (LOX IMVI) was > 100 µM (inactive). For the same molecule, the GI50 (RXF 393) was > 100 µM (inactive), the GI50 (TK-10) was > 100 µM (inactive) and the GI50 (COLO 205) was 60.7 µM (inactive). For the same molecule, the GI50 (SF-539) was 38.2 µM (inactive), the GI50 (Malme-3M) was 42.1 µM (inactive) and the GI50 (HOP-92) was > 100 µM (inactive). The GI50 (SW-620) was 75.9 µM (inactive), the GI50 (K562) was 28.2 µM (inactive) and the GI50 (LXFL 529) was 38.9 µM (inactive). The GI50 (RXF 631) was > 100 µM (inactive), the GI50 (EKVX) was > 100 µM (inactive) and the GI50 (CCRF-CEM) was 23.7 µM (inactive). For the same molecule, the GI50 (M19-MEL) was 36.1 µM (inactive) and the GI50 (HCC 2998) was > 100 µM (inactive).
With `CCOc1ccccc1NC(=O)CCC(=O)NN` the GI50 (DLD-1) was > 100 µM (inactive), the GI50 (NCI-H522) was > 100 µM (inactive) and the GI50 (786-0) was > 100 µM (inactive). For the same molecule, the GI50 (IGROV-1) was > 100 µM (inactive), the GI50 (OVCAR-5) was > 100 µM (inactive) and the GI50 (SNB-75) was > 100 µM (inactive). The GI50 (OVCAR-3) was > 100 µM (inactive), the GI50 (SN12C) was > 100 µM (inactive) and the GI50 (UO-31) was > 100 µM (inactive). The GI50 (A549) was > 100 µM (inactive), the GI50 (SNB-19) was > 100 µM (inactive) and the GI50 (MOLT-4) was > 100 µM (inactive). The GI50 (M14) was > 100 µM (inactive), the GI50 (ACHN) was > 100 µM (inactive) and the GI50 (UACC-62) was > 100 µM (inactive). For the same molecule, the GI50 (U-251) was > 100 µM (inactive), the GI50 (SNB-78) was > 100 µM (inactive) and the GI50 (HOP-62) was > 100 µM (inactive). The GI50 (OVCAR-4) was > 100 µM (inactive), the GI50 (SK-OV-3) was > 100 µM (inactive) and the GI50 (DMS-273) was > 100 µM (inactive). The GI50 (HCT-116) was > 100 µM (inactive), the GI50 (SF-295) was > 100 µM (inactive) and the GI50 (XF498) was > 100 µM (inactive). The GI50 (OVCAR-8) was > 100 µM (inactive), the GI50 (HL-60) was > 100 µM (inactive) and the GI50 (SR) was 2.75 µM (inactive). For the same molecule, the GI50 (HCT-15) was over 100 µM, the GI50 (A498) was > 100 µM (inactive) and the GI50 (SK-MEL-2) was > 100 µM (inactive). For the same molecule, the GI50 (UACC-257) was > 100 µM (inactive), the GI50 (SK-MEL-28) was > 100 µM (inactive) and the GI50 (SF-268) was > 100 µM (inactive). For the same molecule, the GI50 (NCI-H226) was > 100 µM (inactive), the GI50 (CAKI-1) was > 100 µM (inactive) and the GI50 (RPMI-8226) was 65.6 µM (inactive). The GI50 (KM-20L2) was > 100 µM (inactive), the GI50 (KM12) was > 100 µM (inactive) and the GI50 (NCI-H460) was > 100 µM (inactive). For the same molecule, the GI50 (NCI-H23) was > 100 µM (inactive), the GI50 (LOX IMVI) was > 100 µM (inactive) and the GI50 (RXF 393) was > 100 µM (inactive). The GI50 (TK-10) was > 100 µM (inactive), the GI50 (COLO 205) was > 100 µM (inactive) and the GI50 (SF-539) was > 100 µM (inactive). For the same molecule, the GI50 (Malme-3M) was > 100 µM (inactive), the GI50 (HOP-92) was > 100 µM (inactive) and the GI50 (SW-620) was > 100 µM (inactive). For the same molecule, the GI50 (K562) was > 100 µM (inactive), the GI50 (SK-MEL-5) was > 100 µM (inactive) and the GI50 (LXFL 529) was > 100 µM (inactive). For the same molecule, the GI50 (RXF 631) was > 100 µM (inactive), the GI50 (CCRF-CEM) was > 100 µM (inactive) and the GI50 (HT-29) was > 100 µM (inactive). The GI50 (HCC 2998) was > 100 µM (inactive).
